The values below come from ChEMBL document CHEMBL2169741, “Analysis of the discriminative inhibition of mammalian digestive lipases by 3-phenyl substituted 1,3,4-oxadiazol-2(3H)-ones” (Eur J Med Chem, 2012).

The source made the active and inactive calls. The calls are words filed in the database; no cut-off is given here. Bounds are passed on as bounds.

The target of test [1] is T1, Pancreatic lipase-related protein 2 (Homo sapiens) (UniProt P54317).
T1 sequence (whole entry): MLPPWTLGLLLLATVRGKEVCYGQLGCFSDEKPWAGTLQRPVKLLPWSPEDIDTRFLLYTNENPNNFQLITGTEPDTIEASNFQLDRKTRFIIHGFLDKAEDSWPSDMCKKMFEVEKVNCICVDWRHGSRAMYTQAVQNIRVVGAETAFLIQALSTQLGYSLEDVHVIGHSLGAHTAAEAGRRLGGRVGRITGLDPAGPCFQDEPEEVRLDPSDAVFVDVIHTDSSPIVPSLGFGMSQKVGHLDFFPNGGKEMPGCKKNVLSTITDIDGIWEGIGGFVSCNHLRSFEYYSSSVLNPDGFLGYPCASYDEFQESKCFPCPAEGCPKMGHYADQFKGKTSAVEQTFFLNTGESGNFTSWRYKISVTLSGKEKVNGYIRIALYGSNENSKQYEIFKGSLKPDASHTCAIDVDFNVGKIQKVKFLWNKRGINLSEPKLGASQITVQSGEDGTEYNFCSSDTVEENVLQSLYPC
Kind of test: Inhibition of recombinant HPLRP2 expressed in Pichia pastoris assessed as half inactivation time at 5 molar excess in presence of NaTDC.

For test [2], the target named is T2, Pancreatic triacylglycerol lipase (Homo sapiens) (UniProt P16233).
T2 sequence (whole entry): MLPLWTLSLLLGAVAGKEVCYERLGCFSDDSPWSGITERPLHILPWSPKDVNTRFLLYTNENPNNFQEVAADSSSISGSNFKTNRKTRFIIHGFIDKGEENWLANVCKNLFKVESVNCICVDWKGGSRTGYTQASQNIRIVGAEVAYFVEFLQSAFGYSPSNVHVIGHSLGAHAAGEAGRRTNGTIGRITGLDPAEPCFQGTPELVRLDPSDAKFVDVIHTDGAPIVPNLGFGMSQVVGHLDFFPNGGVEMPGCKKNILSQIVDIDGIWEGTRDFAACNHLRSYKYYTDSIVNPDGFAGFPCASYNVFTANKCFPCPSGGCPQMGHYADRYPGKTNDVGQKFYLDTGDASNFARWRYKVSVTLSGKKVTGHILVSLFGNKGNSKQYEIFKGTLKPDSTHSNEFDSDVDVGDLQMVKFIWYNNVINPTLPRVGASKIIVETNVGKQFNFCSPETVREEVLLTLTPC
As to the kind of experiment: Inhibition of recombinant HPL expressed in Pichia pastoris at 100 molar excess after 30 mins in presence of NaTDC.

Test [3] has as its target T3, Gastric triacylglycerol lipase (Canis lupus familiaris) (UniProt P80035).
T3 sequence (whole entry): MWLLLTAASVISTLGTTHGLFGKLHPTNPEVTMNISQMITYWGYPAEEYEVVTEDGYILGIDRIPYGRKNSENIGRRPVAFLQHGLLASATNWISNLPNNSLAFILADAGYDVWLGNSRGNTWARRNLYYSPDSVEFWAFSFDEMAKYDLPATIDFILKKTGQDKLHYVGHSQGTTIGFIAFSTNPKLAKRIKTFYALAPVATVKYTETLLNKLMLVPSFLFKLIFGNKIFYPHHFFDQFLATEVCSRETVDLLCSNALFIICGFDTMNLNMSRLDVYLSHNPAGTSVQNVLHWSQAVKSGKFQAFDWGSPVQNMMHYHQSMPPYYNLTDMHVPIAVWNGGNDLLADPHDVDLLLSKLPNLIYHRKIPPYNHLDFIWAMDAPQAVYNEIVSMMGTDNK
As to the kind of experiment: Inhibition of recombinant DGL expressed in transgenic maize at 20 molar excess after 30 mins in presence of NaTDC.

The target in test [4] is T4, Pancreatic triacylglycerol lipase (Sus scrofa) (UniProt P00591).
T4 sequence (whole entry): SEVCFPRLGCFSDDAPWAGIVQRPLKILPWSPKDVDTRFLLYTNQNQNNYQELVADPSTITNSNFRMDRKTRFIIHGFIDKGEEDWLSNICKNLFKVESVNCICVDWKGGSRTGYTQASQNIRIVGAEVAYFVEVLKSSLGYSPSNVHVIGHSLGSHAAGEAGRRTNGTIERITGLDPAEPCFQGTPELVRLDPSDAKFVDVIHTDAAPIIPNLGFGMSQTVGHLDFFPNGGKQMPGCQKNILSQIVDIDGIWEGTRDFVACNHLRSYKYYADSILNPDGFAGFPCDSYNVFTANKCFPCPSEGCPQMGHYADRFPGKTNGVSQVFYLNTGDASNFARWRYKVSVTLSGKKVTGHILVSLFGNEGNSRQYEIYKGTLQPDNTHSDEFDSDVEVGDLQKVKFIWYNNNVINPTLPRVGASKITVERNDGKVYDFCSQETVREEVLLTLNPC
As to the kind of experiment: Inhibition of PPL assessed as half inactivation time at 100 molar excess in presence of NaTDC.

Test [5] addresses T5, Bile salt-activated lipase (Homo sapiens) (UniProt P19835).
T5 sequence (whole entry): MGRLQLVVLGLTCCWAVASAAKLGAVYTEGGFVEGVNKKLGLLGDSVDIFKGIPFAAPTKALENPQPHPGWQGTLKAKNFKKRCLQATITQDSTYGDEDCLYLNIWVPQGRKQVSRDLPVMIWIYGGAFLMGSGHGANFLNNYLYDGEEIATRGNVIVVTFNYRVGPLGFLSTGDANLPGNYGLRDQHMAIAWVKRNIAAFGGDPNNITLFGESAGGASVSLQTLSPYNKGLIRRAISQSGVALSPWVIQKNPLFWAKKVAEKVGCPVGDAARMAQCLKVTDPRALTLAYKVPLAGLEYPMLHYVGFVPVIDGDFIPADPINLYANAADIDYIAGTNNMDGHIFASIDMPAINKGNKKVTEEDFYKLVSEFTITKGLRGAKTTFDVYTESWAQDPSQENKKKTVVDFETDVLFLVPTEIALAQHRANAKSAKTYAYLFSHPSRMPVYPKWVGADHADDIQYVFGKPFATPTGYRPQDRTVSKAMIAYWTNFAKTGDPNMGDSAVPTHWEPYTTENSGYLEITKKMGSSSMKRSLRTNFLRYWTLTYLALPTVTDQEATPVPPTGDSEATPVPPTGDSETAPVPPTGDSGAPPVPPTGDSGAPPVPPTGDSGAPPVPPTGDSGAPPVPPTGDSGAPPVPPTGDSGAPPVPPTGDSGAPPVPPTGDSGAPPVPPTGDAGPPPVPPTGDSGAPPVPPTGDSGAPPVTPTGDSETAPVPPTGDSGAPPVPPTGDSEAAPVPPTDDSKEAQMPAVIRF
As to the kind of experiment: Inhibition of human pancreatic CEH after 30 mins.

The term inhibition denotes the percentage by which the read-out fell short of the control.

Take `COc1nn(-c2cccc(Oc3ccccc3)c2)c(=O)o1`: the T1/2 amounted to 0.78 min in test [1] and 1.69 min in test [4]. Besides, the inhibition turned out to be 26.3% in test [2] and 81.9% in test [3]. Further, the XI50 in test [5] amounted to 1.48 molar excess.
For `CCCCCCCCCCC[C@@H](C[C@@H]1OC(=O)[C@H]1CCCCCC)OC(=O)[C@H](CC(C)C)NC=O`, the T1/2 in test [1] came out at 0.55 min; in test [4], 1.66 min. Also, the inhibition was found to be 77.2% in test [2] and 56.3% in test [3]. In addition, in test [5], the XI50 came out at 0.78 molar excess.
In the case of `COc1nn(-c2ccccc2)c(=O)o1`, the T1/2 is 14.6 min in test [1] and > 60 min in test [4]. Also, the inhibition result in test [2] is “inactive”. For the same molecule, in test [3], the inhibition is 6.6%. For the same molecule, the XI50 in test [5] is 0.77 molar excess.
For `COc1nn(-c2ccc(Oc3ccccc3)cc2)c(=O)o1` the same measures were 2.06 min, 1.84 min, “inactive”, 92.7% and 0.93 molar excess.
